Series [1] relates to Receptor-type tyrosine-protein kinase FLT3 (Homo sapiens), P36888 [UNDEFINED MUTATION]. The experiment in a line: Inhibition of FLT3 ITD mutant (unknown origin) expressed in BaF3 cells assessed as inhibition of cell proliferation after 72 hrs by CelltiterGlo assay. In kind it is cell-based.
In the next series the test system is MV4-11. Description: Antiproliferative activity against human MV4-11 cells after 72 hrs by CelltiterGlo assay. The conditions noted are these: MV4-11, 72 h. It is filed as functional. On the technique in general: ATP-based viability assays read luminescence as a measure of living cells.
The nature of series [2]: Cytotoxicity against mouse BAF3 cells assessed as cell proliferation after 72 hrs by CelltiterGlo assay. It is filed as cell-based.

Receptor-type tyrosine-protein kinase FLT3 (Homo sapiens), P36888 [UNDEFINED MUTATION], sequence (P36888 whole entry, looked up, stated change not applied): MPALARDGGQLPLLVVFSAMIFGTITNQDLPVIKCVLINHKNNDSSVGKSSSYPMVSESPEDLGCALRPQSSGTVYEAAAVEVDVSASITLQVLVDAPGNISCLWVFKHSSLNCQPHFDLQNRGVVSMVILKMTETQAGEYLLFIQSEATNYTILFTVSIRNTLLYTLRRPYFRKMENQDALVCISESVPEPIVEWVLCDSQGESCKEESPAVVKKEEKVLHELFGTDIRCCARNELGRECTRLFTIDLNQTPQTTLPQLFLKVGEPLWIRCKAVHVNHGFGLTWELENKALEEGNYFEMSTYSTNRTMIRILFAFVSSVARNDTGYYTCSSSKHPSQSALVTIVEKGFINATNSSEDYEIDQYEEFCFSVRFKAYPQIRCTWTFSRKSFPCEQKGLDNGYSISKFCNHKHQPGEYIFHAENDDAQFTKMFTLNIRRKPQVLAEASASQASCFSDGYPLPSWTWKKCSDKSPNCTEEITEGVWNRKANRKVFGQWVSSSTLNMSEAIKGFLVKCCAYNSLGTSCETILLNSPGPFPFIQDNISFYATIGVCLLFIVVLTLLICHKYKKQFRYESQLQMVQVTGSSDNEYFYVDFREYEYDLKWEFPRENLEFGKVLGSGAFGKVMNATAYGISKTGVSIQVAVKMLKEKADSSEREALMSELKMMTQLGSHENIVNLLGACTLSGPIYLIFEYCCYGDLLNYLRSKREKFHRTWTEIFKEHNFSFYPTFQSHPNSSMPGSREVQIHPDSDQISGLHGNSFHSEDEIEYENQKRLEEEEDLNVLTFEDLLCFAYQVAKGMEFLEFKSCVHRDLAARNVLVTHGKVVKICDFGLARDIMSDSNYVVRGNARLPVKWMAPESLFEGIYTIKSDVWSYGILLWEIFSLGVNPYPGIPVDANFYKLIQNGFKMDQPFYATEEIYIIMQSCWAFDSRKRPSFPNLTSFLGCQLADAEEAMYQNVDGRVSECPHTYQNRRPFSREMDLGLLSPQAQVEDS

For orientation: GI50 means the concentration that inhibits growth by half. `CS(=O)(=O)N1CCC(n2nc(-c3ccc(Oc4ccccc4)cc3)c3c(N)ncnc32)CC1`: the results for the GI50 (in series [1]; in the series on MV4-11) were 190 nM and 630 nM, respectively. The GI50 at 72 h in series [2] was above 10000 nM.
`C=CC(=O)N1CCC[C@@H](n2nc(-c3ccc(Oc4ccccc4)cc3)c3c(N)ncnc32)C1` [IBRUTINIB]: in series [1], the GI50 stood at 120 nM. For the same compound, the GI50 at 72 h in series [2] was above 10000 nM.
Turning to `CC(=O)N1CCC[C@@H](n2nc(-c3ccc(Oc4ccccc4)cc3)c3c(N)ncnc32)C1`, the figures for the GI50 (in series [1]; with MV4-11) were 70 nM and 350 nM, respectively. Besides, in series [2], the GI50 at 72 h was 5500 nM.
In the same order, the values of `CCC(C)(C)C(=O)N1CCC[C@@H](n2nc(-c3ccc(Oc4ccccc4)cc3)c3c(N)ncnc32)C1` are 260 nM, 2400 nM and 4500 nM.
In the same order, the values of `CC[C@@H](C)[C@@H](N)C(=O)N1CCC[C@@H](n2nc(-c3ccc(Oc4ccccc4)cc3)c3c(N)ncnc32)C1` are 88 nM, 120 nM and 1700 nM.
As to `CC(C)(C)CC(=O)N1CCC[C@@H](n2nc(-c3ccc(Oc4ccccc4)cc3)c3c(N)ncnc32)C1`, the GI50 in series [1] turned out to be 460 nM; in the series on MV4-11, 2400 nM. Besides, in series [2], the GI50 at 72 h amounted to 4600 nM.
Taken in the same sequence, the figures for `Nc1ncnc2c1c(-c1ccc(Oc3ccccc3)cc1)nn2[C@@H]1CCCN(C(=O)[C@H](N)CO)C1` were 46 nM, 61 nM and 6500 nM.
In the same order, the values of `CC(C)C[C@@H](N)C(=O)N1CCC[C@@H](n2nc(-c3ccc(Oc4ccccc4)cc3)c3c(N)ncnc32)C1` are 5 nM, 32 nM and 1300 nM.
In the same order, the values of `Nc1ncnc2c1c(-c1ccc(Oc3ccccc3)cc1)nn2[C@@H]1CCCN(C(=O)C2CC2)C1` are 1400 nM, 6500 nM and above 10000 nM.
In the case of `CC(C)C[C@@H](N)C(=O)N1CC[C@@H](n2nc(-c3ccc(Oc4ccccc4)cc3)c3c(N)ncnc32)C1`, the GI50 was determined as 41 nM in series [1] and 120 nM in the series on MV4-11. The GI50 at 72 h in series [2] is 2150 nM.
As for `CC(C)(C)C(=O)N1CCC[C@@H](n2nc(-c3ccc(Oc4ccccc4)cc3)c3c(N)ncnc32)C1`, the GI50 in series [1] is 1800 nM; in the series on MV4-11 it was above 10000 nM. Besides, the GI50 at 72 h in series [2] was above 10000 nM.
Take `CS(=O)(=O)N1CCC[C@@H](n2nc(-c3ccc(Oc4ccccc4)cc3)c3c(N)ncnc32)C1`: the GI50 in series [1] turned out to be 48 nM; in the series with MV4-11 it was 170 nM. In addition, the GI50 at 72 h in series [2] is above 10000 nM.
As to `NCCC(=O)N1CCC[C@@H](n2nc(-c3ccc(Oc4ccccc4)cc3)c3c(N)ncnc32)C1`, the GI50 in series [1] turned out to be 390 nM; with MV4-11 it was 750 nM. The GI50 at 72 h in series [2] is above 10000 nM.
In the same order, the values of `Nc1ncnc2c1c(-c1ccc(Oc3ccccc3)cc1)nn2[C@@H]1CCCN(C(=O)CC2CC2)C1` are 82 nM, 410 nM and 3600 nM.
In the same order, the values of `CCS(=O)(=O)N1CCC[C@@H](n2nc(-c3ccc(Oc4ccccc4)cc3)c3c(N)ncnc32)C1` are 140 nM, 570 nM and 4000 nM.
In the same order, the values of `CCC(=O)N1CCC[C@@H](n2nc(-c3ccc(Oc4ccccc4)cc3)c3c(N)ncnc32)C1` are 28 nM, 130 nM and 3800 nM.
With `CN1CCN(CC(=O)N2CCC[C@@H](n3nc(-c4ccc(Oc5ccccc5)cc4)c4c(N)ncnc43)C2)CC1`, the GI50 in series [1] was determined as 93 nM; in the series on MV4-11 it was 230 nM. For the same compound, in series [2], the GI50 at 72 h turned out to be 2300 nM.
Taken in the same sequence, the figures for `CN(C)CC(=O)N1CCC(n2nc(-c3ccc(Oc4ccccc4)cc3)c3c(N)ncnc32)CC1` were 75 nM, 110 nM and 3650 nM.
In the same order, the values of `C[C@@H](N)C(=O)N1CCC[C@@H](n2nc(-c3ccc(Oc4ccccc4)cc3)c3c(N)ncnc32)C1` are 22 nM, 54 nM and 3800 nM.
Taken in the same sequence, the figures for `CN(C)CC(=O)N1CCC[C@H](n2nc(-c3ccc(Oc4ccccc4)cc3)c3c(N)ncnc32)C1` were 120 nM, 280 nM and 5800 nM.
As to `C=CC(=O)N1CCC[C@@H](n2nc(-c3ccc(/C=C/c4ccccc4)cc3)c3c(N)ncnc32)C1`, the values for the GI50 (in series [1]; in the series with MV4-11) were 1800 nM and above 10000 nM, respectively. The GI50 at 72 h in series [2] was above 10000 nM.
Regarding `CC(O)[C@@H](N)C(=O)N1CCC[C@@H](n2nc(-c3ccc(Oc4ccccc4)cc3)c3c(N)ncnc32)C1` (some centres not stated), the GI50 in series [1] is 22 nM; in the series with MV4-11 it was 64 nM. Moreover, the GI50 at 72 h in series [2] came out at 3900 nM.
Take `CCCS(=O)(=O)N1CCC[C@@H](n2nc(-c3ccc(Oc4ccccc4)cc3)c3c(N)ncnc32)C1`: the GI50 in series [1] worked out at 160 nM; in the series on MV4-11 it was 760 nM. Besides, in series [2], the GI50 at 72 h was 8600 nM.
Turning to `NCC(=O)N1CC[C@@H](n2nc(-c3ccc(Oc4ccccc4)cc3)c3c(N)ncnc32)C1`, the GI50 was 80 nM in series [1] and 180 nM in the series on MV4-11. Besides, in series [2], the GI50 at 72 h is 7590 nM.
Taken in the same sequence, the figures for `CCCC(=O)N1CCC[C@@H](n2nc(-c3ccc(Oc4ccccc4)cc3)c3c(N)ncnc32)C1` were 450 nM, 1200 nM and above 10000 nM.
In the same order, the values of `CS(=O)(=O)N1CC[C@@H](n2nc(-c3ccc(Oc4ccccc4)cc3)c3c(N)ncnc32)C1` are 130 nM, 420 nM and above 10000 nM.
Taken in the same sequence, the figures for `CN(C)CC(=O)N1CC[C@@H](n2nc(-c3ccc(Oc4ccccc4)cc3)c3c(N)ncnc32)C1` were 41 nM, 83 nM and 8420 nM.
Take `CN1CCC(C(=O)N2CCC[C@@H](n3nc(-c4ccc(Oc5ccccc5)cc4)c4c(N)ncnc43)C2)CC1`: the GI50 is 77 nM in series [1] and 160 nM in the series on MV4-11. Moreover, the GI50 at 72 h in series [2] was 5000 nM.
Taken in the same sequence, the figures for `CC(C)[C@@H](N)C(=O)N1CCC[C@@H](n2nc(-c3ccc(Oc4ccccc4)cc3)c3c(N)ncnc32)C1` were 17 nM, 27 nM and 1400 nM.
In the same order, the values of `CC(C)C[C@@H](N)C(=O)N1CCC(n2nc(-c3ccc(Oc4ccccc4)cc3)c3c(N)ncnc32)CC1` are 75 nM, 210 nM and 590 nM.
Consider `NCC(=O)N1CCC[C@@H](n2nc(-c3ccc(Oc4ccccc4)cc3)c3c(N)ncnc32)C1`, for which the results for the GI50 (in series [1]; in the series with MV4-11) were 7 nM and 22 nM, respectively. Moreover, the GI50 at 72 h in series [2] was 3800 nM.
